Assay results reported in patent US20250302972A1, “FORMULATION” (ENA Respiratory Pty Ltd, priority 2021, published 2025).
Several values for one entry are separate records, joined by “and”; a condition that tells them apart may be missing. Identical values can stand only once.

Legend:
Assay type in all cases: cell-based
[1] = test system: HEK-Blue Null1 cells; experiment: HEK-Blue Null1 control cell line (control for human TLR2); details: TLR2-free control cells
Method: (§1) The secreted embryonic alkaline phosphatase (SEAP) reporter is under the control of a promoter inducible by the transcription factor NF-κB. This reporter gene allows the monitoring of signaling through the TLR, based on the activation of NF-κB. In a 96-well plate (200 μL total volume) containing the appropriate cells (50,000-75,000 cells/well), 20 μL of the test article or the positive control ligand (HKLC) is added to the wells. The media added to the wells is designed for the detection of NF-κB induced SEAP expression. After a 16-24-hour incubation the optical density (OD) is read at 650 nm on a Molecular Devices SpectraMax 340PC absorbance detector.

[2] = biological target: T1, human TLR2 (Homo sapiens, UniProt O60603); experiment: HEK-Blue hTLR2 Dose Response (NF-κB SEAP reporter); details: for stimulatory (agonist) activity for hTLR2: HEK-Blue hTLR2
T1 construct: expressed in transfected cells; host or cells: HEK-Blue hTLR2
T1 sequence (O60603 21-784): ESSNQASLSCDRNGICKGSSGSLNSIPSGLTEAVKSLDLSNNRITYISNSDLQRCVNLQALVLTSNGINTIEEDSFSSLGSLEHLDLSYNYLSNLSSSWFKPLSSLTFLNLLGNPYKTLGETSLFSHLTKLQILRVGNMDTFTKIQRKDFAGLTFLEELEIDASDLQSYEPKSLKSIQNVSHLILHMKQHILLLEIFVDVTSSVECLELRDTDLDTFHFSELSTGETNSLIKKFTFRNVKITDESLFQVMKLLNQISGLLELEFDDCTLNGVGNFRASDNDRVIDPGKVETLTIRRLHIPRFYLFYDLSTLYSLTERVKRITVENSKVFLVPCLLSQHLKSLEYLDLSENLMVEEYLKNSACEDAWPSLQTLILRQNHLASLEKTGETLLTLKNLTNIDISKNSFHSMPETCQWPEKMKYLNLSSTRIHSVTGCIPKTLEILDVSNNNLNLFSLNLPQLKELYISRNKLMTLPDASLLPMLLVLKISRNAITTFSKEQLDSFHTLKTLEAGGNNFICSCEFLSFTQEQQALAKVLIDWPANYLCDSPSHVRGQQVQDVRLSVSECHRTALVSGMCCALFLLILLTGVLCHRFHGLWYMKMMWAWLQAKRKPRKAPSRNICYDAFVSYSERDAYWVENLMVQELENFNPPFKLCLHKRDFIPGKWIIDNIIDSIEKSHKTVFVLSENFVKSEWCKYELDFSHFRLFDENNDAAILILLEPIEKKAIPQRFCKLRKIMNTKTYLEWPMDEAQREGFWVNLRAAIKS
T1 sequence (Q9Y2C9 32-796 partner): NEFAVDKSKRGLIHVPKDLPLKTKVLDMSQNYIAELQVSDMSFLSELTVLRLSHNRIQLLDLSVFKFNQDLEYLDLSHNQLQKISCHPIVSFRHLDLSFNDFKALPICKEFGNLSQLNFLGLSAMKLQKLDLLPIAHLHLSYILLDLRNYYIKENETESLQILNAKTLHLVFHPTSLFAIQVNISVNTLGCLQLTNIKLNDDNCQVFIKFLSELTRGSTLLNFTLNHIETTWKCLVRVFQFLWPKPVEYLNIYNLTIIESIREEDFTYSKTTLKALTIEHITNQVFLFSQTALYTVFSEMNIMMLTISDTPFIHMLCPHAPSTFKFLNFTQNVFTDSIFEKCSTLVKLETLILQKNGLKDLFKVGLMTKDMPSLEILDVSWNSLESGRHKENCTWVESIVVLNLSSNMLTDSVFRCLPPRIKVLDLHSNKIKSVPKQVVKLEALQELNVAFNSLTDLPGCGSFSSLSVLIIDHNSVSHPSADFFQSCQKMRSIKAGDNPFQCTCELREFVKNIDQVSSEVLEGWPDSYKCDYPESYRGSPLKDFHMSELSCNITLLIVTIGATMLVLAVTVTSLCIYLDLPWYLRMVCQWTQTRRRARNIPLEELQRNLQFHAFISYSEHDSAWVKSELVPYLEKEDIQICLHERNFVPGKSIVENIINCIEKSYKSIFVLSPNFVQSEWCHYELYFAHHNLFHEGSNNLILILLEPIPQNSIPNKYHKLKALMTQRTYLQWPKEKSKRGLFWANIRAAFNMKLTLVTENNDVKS
Method: (§2) Toll-Like Receptor (TLR) stimulation is tested by assessing NF-κB activation in the TLR expressing cell lines. HEK-Blue h/mTLR2 cells have been stably transfected with human or mouse TLR2 and CD14. The activity of the test articles are tested on human and mouse TLR2, as potential agonists. The test articles are evaluated at seven concentrations and compared to control ligands (see list below). These steps are performed in triplicate.
[…] Starting from the 5 μg/mL working stock, a series of six 1:4 serial dilutions were made by mixing 100 μL of the previous highest dilution with 300 μL sterile PBS.
as §1

[3] = test system: HEK-Blue Null2 cells; experiment: HEK-Blue Null2 control cell line (control for mouse TLR2); details: TLR2-free control cells
Method: as §1

[4] = biological target: T2, mouse TLR2 (Mus musculus, UniProt Q9QUN7); experiment: HEK-Blue mTLR2 Dose Response (NF-κB SEAP reporter)
T2 construct: expressed in transfected cells; host or cells: HEK-Blue mTLR2
T2 sequence (Q9QUN7 25-784): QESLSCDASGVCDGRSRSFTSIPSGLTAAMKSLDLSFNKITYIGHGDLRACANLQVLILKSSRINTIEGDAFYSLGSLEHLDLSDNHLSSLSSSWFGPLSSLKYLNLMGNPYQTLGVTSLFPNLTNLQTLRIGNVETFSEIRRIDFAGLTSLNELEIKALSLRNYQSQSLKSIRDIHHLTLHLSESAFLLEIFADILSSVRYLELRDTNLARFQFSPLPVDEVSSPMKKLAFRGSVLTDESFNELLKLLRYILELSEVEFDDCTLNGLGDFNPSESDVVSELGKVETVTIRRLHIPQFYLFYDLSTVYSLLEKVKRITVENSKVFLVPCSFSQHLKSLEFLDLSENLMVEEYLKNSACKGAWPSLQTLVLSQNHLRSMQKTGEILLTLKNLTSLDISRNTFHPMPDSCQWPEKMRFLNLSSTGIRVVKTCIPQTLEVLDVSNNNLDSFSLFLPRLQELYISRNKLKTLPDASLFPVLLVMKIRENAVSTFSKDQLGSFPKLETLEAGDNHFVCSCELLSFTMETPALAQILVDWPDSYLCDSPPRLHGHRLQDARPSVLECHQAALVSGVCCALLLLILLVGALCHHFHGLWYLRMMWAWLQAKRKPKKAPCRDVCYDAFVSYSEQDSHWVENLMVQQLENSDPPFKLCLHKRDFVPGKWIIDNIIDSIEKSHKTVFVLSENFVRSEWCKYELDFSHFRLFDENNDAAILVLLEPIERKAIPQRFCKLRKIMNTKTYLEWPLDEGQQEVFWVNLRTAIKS
T2 sequence (Q9Y2C9 32-796 partner): as the sequence (Q9Y2C9 32-796 partner) above
Method: as §2
A 5 μg/mL working stock was then prepared for each compound from the 20 μg/mL dilution in sterile PBS. Starting from the 5 μg/mL working stock, a series of six 1:4 serial dilutions were made by mixing 100 μL of the previous highest dilution with 300 μL sterile PBS.
as §1

| Compound | stimulatory response in HEK-Blue Null1 (human) cells [1] | Fold Induction (ratio of average induced value to average non-induced value) ([2]; 0.12 pg/mL) | optical density (650 nm), Average ([2]; 0.12 pg/mL) | optical density (650 nm), screenings 1-3 ([2]; 0.12 pg/mL) | optical density (650 nm), Average ([2]; 0.49 pg/mL) | optical density (650 nm), screenings 1-3 ([2]; 0.49 pg/mL) | optical density (650 nm), Average ([2]; 1.95 pg/mL) | optical density (650 nm), screenings 1-3 ([2]; 1.95 pg/mL) | optical density (650 nm), Average ([2]; 7.81 pg/mL) | optical density (650 nm), screenings 1-3 ([2]; 7.81 pg/mL) | optical density (650 nm), Average ([2]; 31.25 pg/mL) | optical density (650 nm), screenings 1-3 ([2]; 31.25 pg/mL) | optical density (650 nm), Average ([2]; 125 pg/mL) | optical density (650 nm), screenings 1-3 ([2]; 125 pg/mL) | Fold Induction ([2]; 500 pg/mL) | optical density (650 nm), Average ([2]; 500 pg/mL) | optical density (650 nm), screenings 1-3 ([2]; 500 pg/mL) | stimulatory (agonist) activity for hTLR2 [2] | stimulatory response in HEK-Blue Null2 (mouse) cells [3] | stimulatory (agonist) activity for mTLR2 [4] | further results |
| --- | --- | --- | --- | --- | --- | --- | --- | --- | --- | --- | --- | --- | --- | --- | --- | --- | --- | --- | --- | --- | --- |
| CCCCCCCCCCCCCC[C@@H](C)C(=O)OC[C@H](CSC[C@H](N)C(=O)N[C@@H](CO)C(=O)NCCOCCOCCOCCOCCOCCOCCOCCOCCOCCOCCOCCOCCOCCOCCOCCOCCOCCOCCOCCOCCOCCOCCOCCOCCOCCOCCOCCOCCC(=O)NCC(N)=O)OC(=O)[C@H](C)CCCCCCCCCCCCCC [B6] | not observed | 9.4 | 0.679 | 0.591 and 0.742 and 0.704 | 1.156 | 1.230 and 1.151 and 1.088 | 1.785 | 1.755 and 1.776 and 1.824 | 2.186 | 2.154 and 2.186 and 2.219 | 2.529 | 2.512 and 2.527 and 2.547 | 2.470 | 2.522 and 2.466 and 2.422 | 36.6 | 2.637 | 2.649 and 2.606 and 2.656 | possesses stimulatory activity | not observed | possesses stimulatory activity | Fold Induction ([2]; 0.49 pg/mL): 16.1; Fold Induction ([2]; 1.95 pg/mL): 24.8; Fold Induction ([2]; 7.81 pg/mL): 30.4; Fold Induction ([2]; 31.25 pg/mL): 35.1; Fold Induction ([2]; 125 pg/mL): 34.3; EC50 ([2]; agonism of hTLR2, HEK-Blue hTLR2): 0.34 nM |
| CCCCCCCCCCCCCC[C@H](C)C(=O)OC[C@H](CSC[C@H](N)C(=O)N[C@@H](CO)C(=O)NCCOCCOCCOCCOCCOCCOCCOCCOCCOCCOCCOCCOCCOCCOCCOCCOCCOCCOCCOCCOCCOCCOCCOCCOCCOCCOCCOCCOCCC(=O)NCC(N)=O)OC(=O)[C@@H](C)CCCCCCCCCCCCCC [B8] | not observed | 25.4 | 1.928 | 1.936 and 1.856 and 1.992 | 2.243 | 2.345 and 2.229 and 2.154 | 2.465 | 2.469 and 2.420 and 2.507 | 2.565 | 2.326 and 2.636 and 2.734 | 2.652 | 2.563 and 2.643 and 2.751 | 2.735 | 2.746 and 2.716 and 2.743 | 35.1 | 2.668 | 2.648 and 2.664 and 2.693 | possesses stimulatory activity | not observed | possesses stimulatory activity | Fold Induction ([2]; 0.49 pg/mL): 29.5; Fold Induction ([2]; 1.95 pg/mL): 32.4; Fold Induction ([2]; 7.81 pg/mL): 33.8; Fold Induction ([2]; 31.25 pg/mL): 34.9; Fold Induction ([2]; 125 pg/mL): 36 |
| CCCCCCCCCCCCCC[C@@H](C)C(=O)OCC[C@H](CSC[C@H](N)C(=O)N[C@@H](CO)C(=O)NCCOCCOCCOCCOCCOCCOCCOCCOCCOCCOCCOCCOCCOCCOCCOCCOCCOCCOCCOCCOCCOCCOCCOCCOCCOCCOCCOCCOCCC(=O)NCC(N)=O)OC(=O)[C@H](C)CCCCCCCCCCCCCC [B14] | not observed |  | 0.823 | 0.826 and 0.869 and 0.774 | 1.342 | 1.256 and 1.364 and 1.406 | 2.018 | 1.994 and 2.061 and 2.000 | 2.562 | 2.569 and 2.545 and 2.571 | 2.744 | 2.820 and 2.720 and 2.691 | 2.814 | 2.928 and 2.800 and 2.713 | 33.9 | 2.759 | 2.722 and 2.765 and 2.791 | possesses stimulatory activity | not observed | possesses stimulatory activity |  |
| CCCCCCCCCCCCCC[C@H](C)C(=O)OCC[C@H](CSC[C@H](N)C(=O)N[C@@H](CO)C(=O)NCCOCCOCCOCCOCCOCCOCCOCCOCCOCCOCCOCCOCCOCCOCCOCCOCCOCCOCCOCCOCCOCCOCCOCCOCCOCCOCCOCCOCCC(=O)NCC(N)=O)OC(=O)[C@@H](C)CCCCCCCCCCCCCC [B16] | not observed |  | 0.666 | 0.688 and 0.591 and 0.718 | 1.099 | 1.080 and 1.097 and 1.121 | 1.521 | 1.478 and 1.513 and 1.573 | 1.978 | 1.903 and 1.897 and 2.133 | 2.252 | 2.093 and 2.297 and 2.367 | 2.540 | 2.531 and 2.544 and 2.545 |  | 2.475 | 2.466 and 2.488 and 2.472 | possesses stimulatory activity | not observed | possesses stimulatory activity |  |
